Data taken from patent US20220370546A1, “PEPTIDE, COMPOSITION, AND METHOD FOR TREATING, PREVENTING, OR AMELIORATING MOOD DISORDER” (KYOTO UNIVERSITY, priority 2019, published 2022).

Test system: ddY mice
Assay: Tail suspension test (evaluation of motivation-enhancing effect)
Assay type: in vivo
Conditions: oral, in saline, n=5; 0.2 μmol/kg body weight; tail suspension test 30 minutes after administration
Protocol: Each of the prepared peptides was administered to mice (ddY mice (5-week-old male mice 24 to 28 g in body weight)) by the method shown below. The mice were then subjected to a tail suspension test for the evaluation of a motivation-enhancing effect.
Each peptide was dissolved in saline. The solution was orally administered to mice (n=5) such that each of peptides 3, 4, and 8 was administered in a dose of 0.3 mg/kg body weight and each of peptides 1, 2, 5, 6, and 7 was administered in a dose of 0.2 μmol/kg body weight. Control mice (n=5) were orally administered with only saline. Each of the mice was subjected to a tail suspension test in which the peptide of the present invention was evaluated for its efficacy to enhance motivation.
Thirty minutes after the administration of the peptide, each mouse was suspended with its tail fixed 30 cm above the floor. Subsequently, during a period of 6 minutes from the start of the test (0 minutes), the time (immobility time) during which the mouse remained in a motionless state, observed after the start of escape behavior, was measured, and the measurements were averaged. The motionless state is known as “despair state”. […] This means that materials effective in enhancing motivation in this test may be effective in treating, preventing, or ameliorating mood disorders. […]

Substance | motivation-enhancing effect
QSQ [Peptide 1] | particularly high level of motivation-enhancing effect
SQK [Peptide 2] | particularly high level of motivation-enhancing effect
